Columns and labels:
Test in all cases: In vitro antibacterial activity, agar dilution MIC
Format in all cases: cell-based
[1] = test system: Streptococcus Pheumoniae 5649; details: Streptococcus Pheumoniae 5649 (organism code ZZA); BHI agar, 35-37 °C, 20 to 24 hours; unit assumed
Experimental: (§1) Representative compounds of the present invention were assayed in vitro for antibacterial activity as follows: Twelve petri dishes containing successive aqueous dilutions of the test compound mixed with 10 mL of sterilized Brain Heart infusion (BHI) agar (Difco 0418-01-5) were prepared. Each plate was inoculated with 1:100 (or 1:10 for slow-growing strains, such as Micrococcus and Streptococcus) dilutions of up to 32 different microorganisms, using a Steers replicator block. […] In addition, a control plate, using BHI agar containing no test compound, was prepared and incubated at the beginning and end of each test.
(§2) An additional plate containing a compound having known susceptibility patterns for the organisms being tested and belonging to the same antibiotic class as the test compound was also prepared and incubated as a further control, as well as to provide test-to-test comparability.
(§3) After incubation, each plate was visually inspected. The minimum inhibitory concentration (MIC) was defined as the lowest concentration of drug yielding no growth, a slight haze, or sparsely isolated colonies on the inoculum spot as compared to the growth control.

[2] = test system: Candida albicans CCH 442; details: Candida albicans CCH 442 (organism code TT); BHI agar, 35-37 °C, 20 to 24 hours; unit assumed
Experimental: as §1, §2, §3

[3] = test system: Staphylococcus aureus 1775; details: Staphylococcus aureus 1775 (organism code GG); BHI agar, 35-37 °C, 20 to 24 hours; unit assumed
Experimental: as §1, §2, §3

[4] = test system: Staphylococcus aureus NCTC10649M; details: Staphylococcus aureus NCTC10649M (organism code EE); BHI agar, 35-37 °C, 20 to 24 hours; unit assumed
Experimental: as §1, §2, §3

[5] = test system: Streptococcus agalactiae CMX 508; details: Streptococcus agalactiae CMX 508 (organism code KK); BHI agar, 35-37 °C, 20 to 24 hours; unit assumed
Experimental: as §1, §2, §3

[6] = test system: Escherichia coli SS; details: Escherichia coli SS (organism code RR); BHI agar, 35-37 °C, 20 to 24 hours; unit assumed
Experimental: as §1, §2, §3

[7] = test system: Nocardia Asteroides ATCC9970; details: Nocardia Asteroides ATCC9970 (organism code VV); BHI agar, 35-37 °C, 20 to 24 hours; unit assumed
Experimental: as §1, §2, §3

[8] = test system: Staphylococcus aureus ATCC 6538P; details: Staphylococcus aureus ATCC 6538P (organism code AA); BHI agar, 35-37 °C, 20 to 24 hours; unit assumed
Experimental: as §1, §2, §3

[9] = test system: Escherichia coli DC-2; details: Escherichia coli DC-2 (organism code SS); BHI agar, 35-37 °C, 20 to 24 hours; unit assumed
Experimental: as §1, §2, §3

[10] = test system: Staphylococcus aureus CMX 553; details: Staphylococcus aureus CMX 553 (organism code FF); BHI agar, 35-37 °C, 20 to 24 hours; unit assumed
Experimental: as §1, §2, §3

[11] = test system: Streptococcus bovis A-5169; details: Streptococcus bovis A-5169 (organism code JJ); BHI agar, 35-37 °C, 20 to 24 hours; unit assumed
Experimental: as §1, §2, §3

[12] = test system: Staphylococcus aureus CMX 642A; details: Staphylococcus aureus CMX 642A (organism code DD); BHI agar, 35-37 °C, 20 to 24 hours; unit assumed
Experimental: as §1, §2, §3

[13] = test system: Enterococcus faecium ATCC 8043; details: Enterococcus faecium ATCC 8043 (organism code II); BHI agar, 35-37 °C, 20 to 24 hours; unit assumed
Experimental: as §1, §2, §3

[14] = test system: Micrococcus luteus ATCC 9341; details: Micrococcus luteus ATCC 9341 (organism code OO); BHI agar, 35-37 °C, 20 to 24 hours; unit assumed
Experimental: as §1, §2, §3

[15] = test system: Haemophilis Influenzae DILL AMP R; details: Haemophilis Influenzae DILL AMP R (organism code WW); BHI agar, 35-37 °C, 20 to 24 hours; unit assumed
Experimental: as §1, §2, §3

[16] = test system: Staphylococcus aureus A5177; details: Staphylococcus aureus A5177 (organism code BB); BHI agar, 35-37 °C, 20 to 24 hours; unit assumed
Experimental: as §1, §2, §3

[17] = test system: Streptococcus Pheumoniae 5979; details: Streptococcus Pheumoniae 5979 (organism code ZZ); BHI agar, 35-37 °C, 20 to 24 hours; unit assumed
Experimental: as §1, §2, §3

[18] = test system: Mycobacterium smegmatis ATCC 114; details: Mycobacterium smegmatis ATCC 114 (organism code UU); BHI agar, 35-37 °C, 20 to 24 hours; unit assumed
Experimental: as §1, §2, §3

[19] = test system: Streptococcus pyogenes EES61; details: Streptococcus pyogenes EES61 (organism code LL); BHI agar, 35-37 °C, 20 to 24 hours; unit assumed
Experimental: as §1, §2, §3

[20] = test system: Streptococcus Pheumoniae ATCC6303; details: Streptococcus Pheumoniae ATCC6303 (organism code XX); BHI agar, 35-37 °C, 20 to 24 hours; unit assumed
Experimental: as §1, §2, §3

[21] = test system: Staphylococcus epidermidis 3519; details: Staphylococcus epidermidis 3519 (organism code HH); BHI agar, 35-37 °C, 20 to 24 hours; unit assumed
Experimental: as §1, §2, §3

[22] = test system: Staphylococcus aureus A-5278; details: Staphylococcus aureus A-5278 (organism code CC); BHI agar, 35-37 °C, 20 to 24 hours; unit assumed
Experimental: as §1, §2, §3

[23] = test system: Micrococcus luteus ATCC 4698; details: Micrococcus luteus ATCC 4698 (organism code PP); BHI agar, 35-37 °C, 20 to 24 hours; unit assumed
Experimental: as §1, §2, §3

[24] = test system: Streptococcus pyogenes PIU 2548; details: Streptococcus pyogenes PIU 2548 (organism code NN); BHI agar, 35-37 °C, 20 to 24 hours; unit assumed
Experimental: as §1, §2, §3

[25] = test system: Streptococcus Pheumoniae GYR 1171; details: Streptococcus Pheumoniae GYR 1171 (organism code YY); BHI agar, 35-37 °C, 20 to 24 hours; unit assumed
Experimental: as §1, §2, §3

[26] = test system: Escherichia coli JUHL; details: Escherichia coli JUHL (organism code QQ); BHI agar, 35-37 °C, 20 to 24 hours; unit assumed
Experimental: as §1, §2, §3

[27] = test system: Streptococcus pyogenes 930; details: Streptococcus pyogenes 930 (organism code MM); BHI agar, 35-37 °C, 20 to 24 hours; unit assumed
Experimental: as §1, §2, §3

| SMILES | MIC [1] [µg/mL] | MIC [2] [µg/mL] | MIC [3] [µg/mL] | MIC [4] [µg/mL] | MIC [5] [µg/mL] | MIC [6] [µg/mL] | MIC [7] [µg/mL] | MIC [8] [µg/mL] | MIC [9] [µg/mL] | MIC [10] [µg/mL] | MIC [11] [µg/mL] | MIC [12] [µg/mL] | MIC [13] [µg/mL] | MIC [14] [µg/mL] | MIC [16] [µg/mL] | MIC [17] [µg/mL] | MIC [18] [µg/mL] | MIC [19] [µg/mL] | MIC [20] [µg/mL] | MIC [21] [µg/mL] | also measured |
| --- | --- | --- | --- | --- | --- | --- | --- | --- | --- | --- | --- | --- | --- | --- | --- | --- | --- | --- | --- | --- | --- |
| CC[C@H]1OC(=O)[C@H](C)C(=O)[C@H](C)[C@@H](O[C@@H]2O[C@H](C)C[C@H](N(C)C(C)=O)[C@H]2O)[C@](C)(OCC=Cc2cnc3ccccc3c2)C[C@@H](C)C(=O)[C@H](C)[C@H]2NC(=O)O[C@@]21C [Example 4, Compound of Formula (II); R is -CH2CH=CH-(3-quinolyl), R^P is H, W is absent, R^w is H, R^1 is acetyl, R^2 is CH3-] | 0.25 | > 100 | > 100 | 6.2 | 0.39 | 100 | 12.5 | 6.2 | > 100 | 6.2 | 0.2 | 6.2 | 1.56 | 0.39 | 6.2 | 128 | 25 | 0.39 | 0.25 | 6.2 | MIC [15]: > 128 µg/mL; MIC [22]: > 100 µg/mL; MIC [23]: 3.1 µg/mL; MIC [24]: 1.56 µg/mL; MIC [25]: 0.125 µg/mL; MIC [26]: > 100 µg/mL |
| CCOC(=O)CN(C)[C@H]1C[C@@H](C)O[C@@H](O[C@@H]2[C@@H](C)C(=O)[C@@H](C)C(=O)O[C@H](CC)[C@@]3(C)OC(=O)N[C@@H]3[C@@H](C)C(=O)[C@H](C)C[C@@]2(C)OCC=Cc2cnc3ccccc3c2)[C@@H]1O [Example 5, Compound of Formula (II); R is -CH2CH=CH-(3-quinolyl), R^p is H, W is absent, R^w is H, R^1 is CH2C(O)-O-CH2CH3, R^2 is CH3.] | 2 | > 100 | > 100 | 12.5 | 1.56 | 25 | 25 | 6.2 | > 100 | 12.5 | 1.56 | 12.5 | 6.2 | 0.78 | 12.5 | > 128 | 25 | 0.39 | 0.25 | 12.5 | MIC [15]: 128 µg/mL; MIC [22]: > 100 µg/mL; MIC [23]: 6.2 µg/mL; MIC [24]: 6.2 µg/mL; MIC [27]: > 100 µg/mL; MIC [25]: 0.25 µg/mL; MIC [26]: > 100 µg/mL |
| CC[C@H]1OC(=O)[C@H](C)C(=O)[C@H](C)[C@@H](O[C@@H]2O[C@H](C)C[C@H](N(C)Cc3cccnc3)[C@H]2O)[C@](C)(OCC=Cc2cnc3ccccc3c2)C[C@@H](C)C(=O)[C@H](C)[C@H]2NC(=O)O[C@@]21C [Example 14, Compound of Formula (II); R is -CH2CH=CH-(3-quinolyl), R^p is H, W is absent, R^w is H, R^1 is CH2-(3-pyridyl), R^2 is CH3] | 0.25 | > 100 | > 100 | 0.39 | 0.2 | 0.78 | 0.2 | 0.39 | > 100 | 0.39 | 0.05 | 0.39 | 0.05 | 0.05 | 0.39 | > 128 | 0.39 | 0.05 | 0.03 | 0.39 | MIC [22]: > 100 µg/mL; MIC [23]: 0.39 µg/mL; MIC [24]: 0.39 µg/mL; MIC [27]: 50 µg/mL; MIC [25]: 0.03 µg/mL; MIC [26]: > 100 µg/mL |

Reference: patent EP1025114B1, “3'-N-MODIFIED 6-O-SUBSTITUTED ERYTHROMYCIN KETOLIDE DERIVATIVES HAVING ANTIBACTERIAL ACTIVITY” (priority 1997, dated 1999)
